Data reported in ChEMBL document CHEMBL5303763, “Data for DCP probe BI-3802” (2023).
Active and inactive are the calls of the source. The calls are words filed in the database; no cut-off is given here.

Columns and labels:
[1] = target: 3-phosphoinositide-dependent protein kinase 1 (Homo sapiens) (UniProt O15530); assay: PDK1 Invitrogen Lab (UK) kinase screen (BI); conditions: Compound concentration 1.0 uM
[2] = target: Ephrin type-A receptor 2 (Homo sapiens) (UniProt P29317); assay: EPHA2 Invitrogen Lab (UK) kinase screen (BI); conditions: Compound concentration 1.0 uM
[3] = target: T1, Alpha-2A adrenergic receptor (Homo sapiens) (UniProt P08913); conditions: Compound concentration 10.0 uM
T1 sequence (whole entry): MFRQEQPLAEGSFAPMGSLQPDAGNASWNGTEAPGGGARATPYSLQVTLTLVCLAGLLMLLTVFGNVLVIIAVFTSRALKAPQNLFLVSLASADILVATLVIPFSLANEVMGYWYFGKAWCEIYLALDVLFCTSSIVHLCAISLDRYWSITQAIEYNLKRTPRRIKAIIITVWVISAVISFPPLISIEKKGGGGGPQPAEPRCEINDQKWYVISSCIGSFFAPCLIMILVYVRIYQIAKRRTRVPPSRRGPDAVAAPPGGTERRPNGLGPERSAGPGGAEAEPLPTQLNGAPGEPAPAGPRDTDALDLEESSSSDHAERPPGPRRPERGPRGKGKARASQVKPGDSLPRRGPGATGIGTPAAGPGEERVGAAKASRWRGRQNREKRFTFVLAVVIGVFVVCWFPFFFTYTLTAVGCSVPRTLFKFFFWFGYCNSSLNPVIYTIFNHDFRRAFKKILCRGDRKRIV

[4] = target: Serine/threonine-protein kinase 3 (Homo sapiens) (UniProt Q13188); assay: STK3 Invitrogen Lab (UK) kinase screen (BI); conditions: Compound concentration 1.0 uM
[5] = target: Dual specificity mitogen-activated protein kinase kinase 2 (Homo sapiens) (UniProt P36507); assay: MAP2K2 Invitrogen Lab (UK) kinase screen (BI); conditions: Compound concentration 1.0 uM
[6] = target: T2, 5-hydroxytryptamine receptor 3A (Homo sapiens) (UniProt P46098); conditions: Compound concentration 10.0 uM
T2 sequence (whole entry): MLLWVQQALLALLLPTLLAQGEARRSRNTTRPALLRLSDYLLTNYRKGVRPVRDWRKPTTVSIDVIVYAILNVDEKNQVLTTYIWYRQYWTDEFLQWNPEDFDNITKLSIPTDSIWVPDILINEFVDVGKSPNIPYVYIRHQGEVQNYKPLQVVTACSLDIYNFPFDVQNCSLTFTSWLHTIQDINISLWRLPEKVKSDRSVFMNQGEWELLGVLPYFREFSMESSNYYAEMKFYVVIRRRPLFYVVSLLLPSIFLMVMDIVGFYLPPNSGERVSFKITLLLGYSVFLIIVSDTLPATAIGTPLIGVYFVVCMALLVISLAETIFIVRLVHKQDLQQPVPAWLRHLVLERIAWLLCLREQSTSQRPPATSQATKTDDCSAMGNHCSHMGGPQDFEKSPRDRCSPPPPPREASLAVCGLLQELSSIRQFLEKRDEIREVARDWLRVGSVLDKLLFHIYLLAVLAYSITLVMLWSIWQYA

[7] = target: Sodium-dependent noradrenaline transporter (Homo sapiens) (UniProt P23975); conditions: Compound concentration 10.0 uM
Sequence of Sodium-dependent noradrenaline transporter (Homo sapiens) (P23975 whole entry): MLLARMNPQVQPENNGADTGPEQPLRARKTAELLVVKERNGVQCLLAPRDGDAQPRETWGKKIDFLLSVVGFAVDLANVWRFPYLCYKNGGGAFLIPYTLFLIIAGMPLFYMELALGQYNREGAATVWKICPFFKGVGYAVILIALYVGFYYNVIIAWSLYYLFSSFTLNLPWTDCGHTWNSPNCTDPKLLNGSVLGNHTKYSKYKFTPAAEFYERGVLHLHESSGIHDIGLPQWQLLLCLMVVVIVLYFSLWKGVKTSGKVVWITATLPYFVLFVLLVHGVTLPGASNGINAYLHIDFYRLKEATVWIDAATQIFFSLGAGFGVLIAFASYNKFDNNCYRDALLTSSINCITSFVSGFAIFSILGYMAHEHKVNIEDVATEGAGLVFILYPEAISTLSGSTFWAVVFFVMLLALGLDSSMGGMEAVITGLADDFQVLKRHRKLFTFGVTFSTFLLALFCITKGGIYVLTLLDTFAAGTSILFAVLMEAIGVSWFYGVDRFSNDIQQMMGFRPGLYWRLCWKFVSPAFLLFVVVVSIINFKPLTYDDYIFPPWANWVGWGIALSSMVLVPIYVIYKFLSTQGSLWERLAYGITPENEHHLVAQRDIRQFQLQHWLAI

[8] = target: 5-hydroxytryptamine receptor 1B (Rattus norvegicus) (UniProt P28564); assay: 5HT1B/R Eurofins SafetyScreen44 (BI); conditions: Compound concentration 10.0 uM
Sequence of 5-hydroxytryptamine receptor 1B (Rattus norvegicus) (P28564 whole entry): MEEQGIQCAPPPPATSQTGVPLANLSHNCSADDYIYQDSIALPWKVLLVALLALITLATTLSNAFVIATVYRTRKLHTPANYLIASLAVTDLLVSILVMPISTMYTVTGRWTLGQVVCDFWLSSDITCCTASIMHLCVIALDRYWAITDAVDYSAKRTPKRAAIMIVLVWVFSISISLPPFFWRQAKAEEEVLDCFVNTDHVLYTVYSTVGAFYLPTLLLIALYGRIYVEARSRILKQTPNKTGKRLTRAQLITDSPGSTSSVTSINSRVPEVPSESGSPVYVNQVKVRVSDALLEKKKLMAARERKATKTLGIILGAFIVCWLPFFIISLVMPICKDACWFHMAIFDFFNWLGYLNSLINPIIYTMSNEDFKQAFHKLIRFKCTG

[9] = target: 5-hydroxytryptamine receptor 1D (Homo sapiens) (UniProt P28221); conditions: Compound concentration 10.0 uM
Sequence of 5-hydroxytryptamine receptor 1D (Homo sapiens) (P28221 whole entry): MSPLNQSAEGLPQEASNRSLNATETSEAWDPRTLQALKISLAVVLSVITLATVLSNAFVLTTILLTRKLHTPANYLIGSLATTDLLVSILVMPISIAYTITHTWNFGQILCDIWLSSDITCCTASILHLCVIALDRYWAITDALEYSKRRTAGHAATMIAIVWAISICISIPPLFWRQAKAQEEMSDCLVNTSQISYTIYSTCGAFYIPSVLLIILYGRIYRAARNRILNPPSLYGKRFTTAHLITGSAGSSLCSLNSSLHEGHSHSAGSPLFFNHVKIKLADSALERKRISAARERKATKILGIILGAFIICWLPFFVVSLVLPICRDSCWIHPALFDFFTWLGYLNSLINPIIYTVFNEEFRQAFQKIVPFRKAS

[10] = target: 5-hydroxytryptamine receptor 1B (Homo sapiens) (UniProt P28222); conditions: Compound concentration 10.0 uM
Sequence of 5-hydroxytryptamine receptor 1B (Homo sapiens) (P28222 whole entry, canonical isoform): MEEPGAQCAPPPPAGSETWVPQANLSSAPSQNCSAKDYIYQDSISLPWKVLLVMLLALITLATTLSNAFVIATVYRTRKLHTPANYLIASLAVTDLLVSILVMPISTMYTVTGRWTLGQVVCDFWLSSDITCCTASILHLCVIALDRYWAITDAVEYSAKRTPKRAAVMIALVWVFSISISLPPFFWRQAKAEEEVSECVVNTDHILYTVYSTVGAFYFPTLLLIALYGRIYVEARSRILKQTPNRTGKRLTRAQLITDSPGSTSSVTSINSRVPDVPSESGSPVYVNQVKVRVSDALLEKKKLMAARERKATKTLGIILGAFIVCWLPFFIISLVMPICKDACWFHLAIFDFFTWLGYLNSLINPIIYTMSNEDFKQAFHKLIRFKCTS

[11] = target: Casein kinase I isoform alpha (Homo sapiens) (UniProt P48729); assay: CSNK1A1 Invitrogen Lab (UK) kinase screen (BI); conditions: Compound concentration 1.0 uM
[12] = target: Alpha-2C adrenergic receptor (Homo sapiens) (UniProt P18825); conditions: Compound concentration 10.0 uM
Sequence of Alpha-2C adrenergic receptor (Homo sapiens) (P18825 whole entry): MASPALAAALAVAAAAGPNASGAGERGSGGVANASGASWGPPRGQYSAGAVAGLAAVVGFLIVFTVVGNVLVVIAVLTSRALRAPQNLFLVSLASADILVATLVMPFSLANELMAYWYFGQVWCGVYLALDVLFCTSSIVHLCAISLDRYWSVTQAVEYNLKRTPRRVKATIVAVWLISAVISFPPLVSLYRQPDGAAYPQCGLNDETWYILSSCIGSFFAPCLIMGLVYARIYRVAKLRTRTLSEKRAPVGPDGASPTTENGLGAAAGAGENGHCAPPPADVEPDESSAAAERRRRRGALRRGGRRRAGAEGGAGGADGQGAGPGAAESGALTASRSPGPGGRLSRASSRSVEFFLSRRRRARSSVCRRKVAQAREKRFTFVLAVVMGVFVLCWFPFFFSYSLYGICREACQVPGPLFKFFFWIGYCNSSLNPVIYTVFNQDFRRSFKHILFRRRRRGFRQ

[13] = target: Sigma intracellular receptor 2 (Homo sapiens) (UniProt Q5BJF2); conditions: Compound concentration 10.0 uM
Sequence of Sigma intracellular receptor 2 (Homo sapiens) (Q5BJF2 whole entry): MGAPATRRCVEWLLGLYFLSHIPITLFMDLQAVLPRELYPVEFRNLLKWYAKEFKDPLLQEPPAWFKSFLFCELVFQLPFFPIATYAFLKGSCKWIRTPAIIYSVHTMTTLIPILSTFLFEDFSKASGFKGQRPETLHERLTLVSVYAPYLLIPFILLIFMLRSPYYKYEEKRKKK

[14] = target: Tyrosine-protein kinase ITK/TSK (Homo sapiens) (UniProt Q08881); assay: ITK Invitrogen Lab (UK) kinase screen (BI); conditions: Compound concentration 1.0 uM
[15] = target: Kappa-type opioid receptor (Homo sapiens) (UniProt P41145); conditions: Compound concentration 10.0 uM
Sequence of Kappa-type opioid receptor (Homo sapiens) (P41145 whole entry): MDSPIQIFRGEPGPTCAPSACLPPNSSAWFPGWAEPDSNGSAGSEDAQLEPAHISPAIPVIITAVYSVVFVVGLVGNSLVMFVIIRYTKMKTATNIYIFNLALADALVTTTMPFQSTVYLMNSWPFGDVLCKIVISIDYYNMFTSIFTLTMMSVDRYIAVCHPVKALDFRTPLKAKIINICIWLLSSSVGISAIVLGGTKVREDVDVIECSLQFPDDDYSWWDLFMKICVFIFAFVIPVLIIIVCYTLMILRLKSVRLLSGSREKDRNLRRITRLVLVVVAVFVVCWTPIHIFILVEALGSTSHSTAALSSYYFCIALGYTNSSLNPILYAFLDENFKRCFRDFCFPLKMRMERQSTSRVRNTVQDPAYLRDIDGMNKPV

[16] = target: High affinity nerve growth factor receptor (Homo sapiens) (UniProt P04629); assay: NTRK1 Invitrogen Lab (UK) kinase screen (BI); conditions: Compound concentration 1.0 uM
[17] = target: Vascular endothelial growth factor receptor 2 (Homo sapiens) (UniProt P35968); assay: KDR Invitrogen Lab (UK) kinase screen (BI); conditions: Compound concentration 1.0 uM
[18] = target: GABA-A receptor; anion channel (Rattus norvegicus) (UniProt O09028+P15431+P18506+P18508+P19969+P20236+P23574+P23576+P28471+P28473+P30191+P62813+P63079+P63138+Q91ZM7+Q9ES14); conditions: Compound concentration 10.0 uM
[19] = target: Muscarinic acetylcholine receptor M4 (Homo sapiens) (UniProt P08173); conditions: Compound concentration 10.0 uM
Sequence of Muscarinic acetylcholine receptor M4 (Homo sapiens) (P08173 whole entry): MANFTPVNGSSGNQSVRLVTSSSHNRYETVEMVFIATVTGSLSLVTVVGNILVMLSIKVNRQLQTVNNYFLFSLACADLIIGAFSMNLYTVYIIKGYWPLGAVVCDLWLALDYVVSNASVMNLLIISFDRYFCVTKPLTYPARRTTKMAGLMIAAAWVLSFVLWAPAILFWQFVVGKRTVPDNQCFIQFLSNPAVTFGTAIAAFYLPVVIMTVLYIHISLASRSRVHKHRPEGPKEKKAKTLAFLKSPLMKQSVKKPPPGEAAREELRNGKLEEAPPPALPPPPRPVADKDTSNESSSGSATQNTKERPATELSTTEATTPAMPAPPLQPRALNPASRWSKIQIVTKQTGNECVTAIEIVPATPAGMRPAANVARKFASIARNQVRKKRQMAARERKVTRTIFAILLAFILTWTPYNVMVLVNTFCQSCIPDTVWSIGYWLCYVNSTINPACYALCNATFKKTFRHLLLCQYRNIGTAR

[20] = target: Muscarinic acetylcholine receptor M3 (Homo sapiens) (UniProt P20309); conditions: Compound concentration 10.0 uM
[21] = target: T3, B-cell lymphoma 6 protein (Homo sapiens, UniProt P41182); assay: BCL6::NCOR LUMIER in cells
[22] = target: Alpha-1D adrenergic receptor (Homo sapiens) (UniProt P25100); conditions: Compound concentration 10.0 uM
Sequence of Alpha-1D adrenergic receptor (Homo sapiens) (P25100 whole entry): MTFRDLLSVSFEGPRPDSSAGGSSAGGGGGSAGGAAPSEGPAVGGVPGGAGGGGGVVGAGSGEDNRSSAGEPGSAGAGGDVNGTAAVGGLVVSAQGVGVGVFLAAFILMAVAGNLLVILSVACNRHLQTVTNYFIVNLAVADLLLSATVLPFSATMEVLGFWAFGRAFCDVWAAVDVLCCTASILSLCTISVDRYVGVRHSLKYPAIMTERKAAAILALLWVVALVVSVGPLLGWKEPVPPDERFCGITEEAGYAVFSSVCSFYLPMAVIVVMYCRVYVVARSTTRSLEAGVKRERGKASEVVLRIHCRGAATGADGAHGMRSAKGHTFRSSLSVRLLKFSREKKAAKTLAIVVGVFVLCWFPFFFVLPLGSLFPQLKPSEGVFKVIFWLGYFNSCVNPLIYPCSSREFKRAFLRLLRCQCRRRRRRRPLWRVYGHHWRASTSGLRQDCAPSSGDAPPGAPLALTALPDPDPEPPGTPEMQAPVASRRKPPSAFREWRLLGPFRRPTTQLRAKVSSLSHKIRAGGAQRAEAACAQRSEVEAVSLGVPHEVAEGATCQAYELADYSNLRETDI

[23] = target: Serine/threonine-protein kinase TBK1 (Homo sapiens) (UniProt Q9UHD2); assay: TBK1 Invitrogen Lab (UK) kinase screen (BI); conditions: Compound concentration 1.0 uM
[24] = target: 5-hydroxytryptamine receptor 7 (Homo sapiens) (UniProt P34969); conditions: Compound concentration 10.0 uM
Sequence of 5-hydroxytryptamine receptor 7 (Homo sapiens) (P34969 whole entry): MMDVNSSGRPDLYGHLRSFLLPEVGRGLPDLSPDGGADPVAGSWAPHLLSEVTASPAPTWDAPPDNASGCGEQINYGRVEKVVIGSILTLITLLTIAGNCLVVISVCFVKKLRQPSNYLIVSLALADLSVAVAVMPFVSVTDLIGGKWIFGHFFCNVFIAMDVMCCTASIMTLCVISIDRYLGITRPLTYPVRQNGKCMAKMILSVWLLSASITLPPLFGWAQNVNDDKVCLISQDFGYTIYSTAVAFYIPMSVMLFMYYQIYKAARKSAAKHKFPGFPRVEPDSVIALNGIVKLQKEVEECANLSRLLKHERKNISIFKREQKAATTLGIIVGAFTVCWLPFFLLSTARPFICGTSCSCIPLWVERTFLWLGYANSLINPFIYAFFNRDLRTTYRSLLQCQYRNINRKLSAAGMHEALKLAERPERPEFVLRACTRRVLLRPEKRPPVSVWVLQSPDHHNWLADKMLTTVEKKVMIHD

[25] = target: Leucine-rich repeat serine/threonine-protein kinase 2 (Homo sapiens) (UniProt Q5S007); assay: LRRK2 Invitrogen Lab (UK) kinase screen (BI); conditions: Compound concentration 1.0 uM
[26] = target: Epidermal growth factor receptor (Homo sapiens) (UniProt P00533); assay: EGFR Invitrogen Lab (UK) kinase screen (BI); conditions: Compound concentration 1.0 uM
[27] = target: Mitogen-activated protein kinase 3 (Homo sapiens) (UniProt P27361); assay: MAPK3 Invitrogen Lab (UK) kinase screen (BI); conditions: Compound concentration 1.0 uM
[28] = target: Cannabinoid receptor 1 (Homo sapiens) (UniProt P21554); assay: CB1/CENTR/H Eurofins SafetyScreen44 (BI); conditions: Compound concentration 10.0 uM
[29] = target: Histamine H1 receptor (Homo sapiens) (UniProt P35367); conditions: Compound concentration 10.0 uM
Sequence of Histamine H1 receptor (Homo sapiens) (P35367 whole entry): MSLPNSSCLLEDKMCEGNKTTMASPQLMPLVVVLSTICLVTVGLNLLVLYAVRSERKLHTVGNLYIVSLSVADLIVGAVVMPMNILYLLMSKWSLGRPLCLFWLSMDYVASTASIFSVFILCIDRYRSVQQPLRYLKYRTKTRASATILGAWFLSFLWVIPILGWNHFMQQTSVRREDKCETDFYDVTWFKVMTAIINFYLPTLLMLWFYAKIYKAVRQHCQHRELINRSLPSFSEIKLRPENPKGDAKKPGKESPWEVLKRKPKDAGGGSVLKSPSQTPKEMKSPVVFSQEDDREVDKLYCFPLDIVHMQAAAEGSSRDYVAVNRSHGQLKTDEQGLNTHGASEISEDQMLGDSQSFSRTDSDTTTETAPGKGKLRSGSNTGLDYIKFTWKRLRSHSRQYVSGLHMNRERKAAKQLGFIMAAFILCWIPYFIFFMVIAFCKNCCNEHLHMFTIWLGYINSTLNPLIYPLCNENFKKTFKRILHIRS

[30] = target: T3, B-cell lymphoma 6 protein; assay: SPR (BCL6), Ontario institute for cancer research
[31] = target: 5-hydroxytryptamine receptor 1B (Homo sapiens) (UniProt P28222); assay: 5HT1B(H) Eurofins SafetyScreen44 (BI); conditions: filed as antagonist, Compound concentration 10.0 uM

SMILES: CNC(=O)COc1cc2cc(Nc3nc(N4C[C@H](C)C[C@H](C)C4)ncc3Cl)ccc2n(C)c1=O
- residual activity [1]: 98%
- residual activity [2]: 97%
- inhibition [3]: 5.49%
- residual activity [4]: 101%
- residual activity [5]: 111%
- inhibition [6]: 12.5%
- inhibition [7]: 9.75%
- residual activity [8]: 115%
- inhibition [9]: 13.7%
- inhibition [10]: 8.61%
- residual activity [11]: 93%
- inhibition [12]: 6.5%
- inhibition [13]: 17.1%
- residual activity [14]: 100%
- inhibition [15]: 33.5%
- residual activity [16]: 83%
- residual activity [17]: 111%
- inhibition [18]: 20.9%
- inhibition [19]: -1.45%
- inhibition [20]: -2.43%
- IC50 [21]: 43 nM (active)
- inhibition [22]: -7.81%
- residual activity [23]: 120%
- inhibition [24]: 15.5%
- residual activity [25]: 78%
- residual activity [26]: 88%
- residual activity [27]: 105%
- residual activity [28]: 84%
- inhibition [29]: 6.31%

SMILES: C[C@@H]1C[C@H](C)CN(c2ncc(Cl)c(Nc3ccc4c(c3)cc(OC(C)(C)C(=O)O)c(=O)n4C)n2)C1
- Kd [30]: 1410 nM (not active)
- residual activity [31]: 95%
